Key:
[1] = test system: A549; experiment: Cytotoxicity against human A549 cells assessed as cell growth at 50 nM after 48 hrs by SRB assay; assay type: functional; conditions: A549, 48 h, read-out: Activity
[2] = test system: NCI-H23; experiment: Cytotoxicity against human NCI-H23 cells assessed as cell growth at 50 nM after 48 hrs by SRB assay; assay type: functional; conditions: NCI-H23, 48 h, read-out: Activity
[3] = test system: NCI-H460; experiment: Cytotoxicity against human NCI-H460 cells assessed as cell growth at 50 nM after 48 hrs by SRB assay; assay type: functional; conditions: NCI-H460, 48 h, read-out: Activity
[4] = Cytotoxicity against human OVCAR5 cells assessed as cell growth at 50 nM after 48 hrs by SRB assay; assay type: functional; conditions: OVCAR-5, 48 h, read-out: Activity
[5] = Cytotoxicity against human BT549 cells assessed as cell growth at 50 nM after 48 hrs by SRB assay; assay type: functional; conditions: BT-549, 48 h, read-out: Activity
[6] = Cytotoxicity against human SF539 cells assessed as cell growth at 50 uM after 48 hrs by SRB assay; assay type: functional; conditions: SF-539, 48 h, read-out: Activity
[7] = Cytotoxicity against human SKOV3 cells assessed as cell growth at 50 uM after 48 hrs by SRB assay; assay type: functional; conditions: SK-OV-3, 48 h, read-out: Activity
[8] = Metabolic stability in human liver microsomes assessed as remaining parent compound level at 10 uM after 3 hrs in absence of NAPDH by LC/MS analysis; assay type: ADME; conditions: read-out: Drug metabolism
[9] = Cytotoxicity against human Caki1 cells assessed as growth inhibition after 48 hrs by SRB assay; assay type: functional; conditions: CAKI-1, 48 h
[10] = test system: KM12; experiment: Cytotoxicity against human KM12 cells assessed as cell growth at 0.5 uM after 48 hrs by SRB assay; assay type: functional; conditions: KM12, 48 h, read-out: Activity
[11] = Cytotoxicity against human SNB75 cells assessed as cell growth at 0.5 uM after 48 hrs by SRB assay; assay type: functional; conditions: SNB-75, 48 h, read-out: Activity
[12] = Cytotoxicity against human OVCAR5 cells assessed as cell growth at 0.5 uM after 48 hrs by SRB assay; assay type: functional; conditions: OVCAR-5, 48 h, read-out: Activity
[13] = test system: SR; experiment: Cytotoxicity against human SR cells assessed as cell growth at 5 uM after 48 hrs by SRB assay; assay type: functional; conditions: read-out: Activity
[14] = Cytotoxicity against human HOP62 cells assessed as cell growth at 5 uM after 48 hrs by SRB assay; assay type: functional; conditions: HOP-62, 48 h, read-out: Activity
[15] = Cytotoxicity against human UO31 cells assessed as growth inhibition after 48 hrs by SRB assay; assay type: functional; conditions: UO-31, 48 h; for CC50: read-out: LC50 (the source's name)
[16] = test system: HT-29; experiment: Cytotoxicity against human HT-29 cells assessed as cell growth at 5 nM after 48 hrs by SRB assay; assay type: functional; conditions: HT-29, 48 h, read-out: Activity
[17] = Cytotoxicity against human SF268 cells assessed as cell growth at 5 nM after 48 hrs by SRB assay; assay type: functional; conditions: SF-268, 48 h, read-out: Activity
[18] = test system: SK-MEL-2; experiment: Cytotoxicity against human SK-MEL-2 cells assessed as cell growth at 5 nM after 48 hrs by SRB assay; assay type: functional; conditions: SK-MEL-2, 48 h, read-out: Activity
[19] = test system: SN12C; experiment: Cytotoxicity against human SN12C cells assessed as cell growth at 5 nM after 48 hrs by SRB assay; assay type: functional; conditions: read-out: Activity
[20] = Cytotoxicity against human DU145 cells assessed as cell growth at 5 nM after 48 hrs by SRB assay; assay type: functional; conditions: DU-145, 48 h, read-out: Activity
[21] = Cytotoxicity against human OVCAR3 cells assessed as cell growth at 5 uM after 48 hrs by SRB assay; assay type: functional; conditions: OVCAR-3, 48 h, read-out: Activity
[22] = Cytotoxicity against human OVCAR5 cells assessed as cell growth at 5 uM after 48 hrs by SRB assay; assay type: functional; conditions: OVCAR-5, 48 h, read-out: Activity
[23] = Cytotoxicity against human OVCAR8 cells assessed as cell growth at 5 uM after 48 hrs by SRB assay; assay type: functional; conditions: OVCAR-8, 48 h, read-out: Activity
[24] = test system: MCF7; experiment: Cytotoxicity against human MCF7 cells assessed as cell growth at 5 uM after 48 hrs by SRB assay; assay type: functional; conditions: MCF7, 48 h, read-out: Activity
[25] = test system: MDA-MB-468; experiment: Cytotoxicity against human MDA-MB-468 cells assessed as cell growth at 5 uM after 48 hrs by SRB assay; assay type: functional; conditions: MDA-MB-468, 48 h, read-out: Activity
[26] = Cytotoxicity against human MOLT4 cells assessed as cell growth at 50 uM after 48 hrs by SRB assay; assay type: functional; conditions: MOLT-4, 48 h, read-out: Activity
[27] = Cytotoxicity against human COLO205 cells assessed as cell growth at 50 uM after 48 hrs by SRB assay; assay type: functional; conditions: COLO 205, 48 h, read-out: Activity
[28] = Cytotoxicity against human NCI-ADR-RES cells assessed as cell growth at 10^-7 M after 48 hrs by SRB assay; assay type: functional; conditions: read-out: Activity
[29] = Cytotoxicity against human HCT116 cells assessed as cell growth at 10^-6 M after 48 hrs by SRB assay; assay type: functional; conditions: HCT-116, 48 h, read-out: Activity
[30] = Cytotoxicity against human SNB19 cells assessed as cell growth at 10^-6 M after 48 hrs by SRB assay; assay type: functional; conditions: SNB-19, 48 h, read-out: Activity
[31] = Cytotoxicity against human OVCAR3 cells assessed as cell growth at 10^-6 M after 48 hrs by SRB assay; assay type: functional; conditions: OVCAR-3, 48 h, read-out: Activity
[32] = Cytotoxicity against human NCI-ADR-RES cells assessed as cell growth at 10^-6 M after 48 hrs by SRB assay; assay type: functional; conditions: read-out: Activity
[33] = test system: ACHN; experiment: Cytotoxicity against human ACHN cells assessed as cell growth at 10^-6 M after 48 hrs by SRB assay; assay type: functional; conditions: read-out: Activity
[34] = test system: K562; experiment: Cytotoxicity against human K562 cells assessed as cell growth at 10^-5 M after 48 hrs by SRB assay; assay type: functional; conditions: K562, 48 h, read-out: Activity
[35] = test system: EKVX; experiment: Cytotoxicity against human EKVX cells assessed as cell growth at 10^-5 M after 48 hrs by SRB assay; assay type: functional; conditions: read-out: Activity
[36] = Cytotoxicity against human HOP92 cells assessed as cell growth at 10^-5 M after 48 hrs by SRB assay; assay type: functional; conditions: HOP-92, 48 h, read-out: Activity
[37] = Cytotoxicity against human SF295 cells assessed as cell growth at 10^-5 M after 48 hrs by SRB assay; assay type: functional; conditions: SF-295, 48 h, read-out: Activity
[38] = Cytotoxicity against human SNB75 cells assessed as cell growth at 10^-5 M after 48 hrs by SRB assay; assay type: functional; conditions: SNB-75, 48 h, read-out: Activity
[39] = Cytotoxicity against human SNB75 cells assessed as cell growth at 10^-8 M after 48 hrs by SRB assay; assay type: functional; conditions: SNB-75, 48 h, read-out: Activity
[40] = test system: MCF7; experiment: Cytotoxicity against human MCF7 cells assessed as cell growth at 10^-8 M after 48 hrs by SRB assay; assay type: functional; conditions: MCF7, 48 h, read-out: Activity
[41] = Cytotoxicity against human SF295 cells assessed as cell growth at 10^-4 M after 48 hrs by SRB assay; assay type: functional; conditions: SF-295, 48 h, read-out: Activity

CCCCCCCCCC(=O)Oc1ccc(/C(=C(/C)c2ccccc2)c2ccc(OCCN3CCCC3)cc2)cc1
growth at 0.05 µM [1]: 102% | growth at 0.05 µM [2]: 96% | growth at 0.05 µM [3]: 102% | growth at 0.05 µM [4]: 94% | growth at 0.05 µM [5]: 92% | growth at 50 µM [6]: -82% | growth at 50 µM [7]: -88% | remaining at 3 h, 10 µM [8]: 54% | GI50 [9]: 6.77 µM | LC50 [9]: 28.7 µM | TGI [9]: 13.9 µM | growth at 0.5 µM [10]: 76% | growth at 0.5 µM [11]: 68% | growth at 0.5 µM [12]: 77% | growth at 5 µM [13]: 90% | growth at 5 µM [14]: 91% | GI50 [15]: 6.72 µM | TGI [15]: 14.2 µM | CC50 [15]: 29.8 µM | growth at 0.005 µM [16]: 101% | growth at 0.005 µM [17]: 100% | growth at 0.005 µM [18]: 101% | growth at 0.005 µM [19]: 102% | growth at 0.005 µM [20]: 102% | growth at 5 µM [21]: 86% | growth at 5 µM [22]: 91% | growth at 5 µM [23]: 95% | growth at 5 µM [24]: 36% | growth at 5 µM [25]: 76% | growth at 50 µM [26]: -53% | growth at 50 µM [27]: -89%

C/C(=C(/c1ccc(O)cc1)c1ccc(OCCN2CCCC2)cc1)c1ccccc1
growth at 0.1 µM [28]: 97% | growth at 1 µM [29]: 93% | GI50 [9]: 3.02 µM | LC50 [9]: 37.3 µM | TGI [9]: 13.9 µM | growth at 1 µM [30]: 104% | growth at 1 µM [31]: 97% | growth at 1 µM [32]: 91% | growth at 1 µM [33]: 93% | growth at 10 µM [34]: -38% | growth at 10 µM [35]: 6% | growth at 10 µM [36]: -13% | growth at 10 µM [37]: -57% | growth at 10 µM [38]: 23% | growth at 0.01 µM [39]: 72% | GI50 [15]: 1.87 µM | TGI [15]: 5.72 µM | CC50 [15]: 23.7 µM | growth at 0.01 µM [40]: 44% | growth at 100 µM [41]: -95%

Reference: ChEMBL document CHEMBL3774317, “Design and synthesis of novel tamoxifen analogues that avoid CYP2D6 metabolism” (Eur J Med Chem, 2016)
